Reference: patent US20140329863A1 (priority 2011, published 2014)
≈ marks a conversion by molar mass, not a printed value. Read-outs that look alike come from different tables or passages of the source.

What was measured:
[1] = system: MDCK-MDR^1 cells (P-glycoprotein); assay: Bidirectional MDCK-MDR1 cell permeability; format: in vitro ADME, canine
Experimental: MDCK-MDR^1 cells were grown to confluence for 5-10 days on 1-μm filters in 24-well plates {Hilgers, 1990}. Aliquots of DMSO stocks were diluted into Hank's balanced salt solution (HBSS), pH 7.4, containing […] to give 10-μM solute concentration. The solute containing donor solutions were transferred to either the apical or basolateral chamber of the permeability diffusion apparatus. Receiver solutions consisted of HBSS (pH 7.4) containing 25 mM HEPES+0.05% PS80. Sequential samples of transported solute were taken at 20-min intervals using an automated liquid handling platform. The concentration of transported solute during each sampling interval was determined by HPLC/UV/MS. Permeability coefficients were calculated for each sampling interval. The average and standard deviation from the intervals are reported. Mass balance in the system was ascertained by comparing the sum of total transported solute and remaining donor solute with the starting mass of solute and is expressed as a percentage of donor solute at time zero. […] In the event of mass balance less than 70%, the cell monolayers were extracted with ACN and analyzed for the solute of interest. Determinations were conducted in duplicate.

[2] = system: PrP^Sc in dividing ScN2a-cl3 cells; format: cell-based, mouse; design: Dividing ELISA pEC50 (μM) 1st Expt. / Dividing ELISA pEC50 (μM) 2nd Expt. / Dividing ELISA pEC50 (μM) 3rd Expt. / Dividing ELISA pEC50 (μM) Mean: unit not given here
[3] = system: PrP^Sc in nondividing ScN2a-cl3 cells; format: cell-based, mouse; details: read-out: Non-Dividing ELISA EC50 (μM) Mean (n = 3); ScN2a-c13 non-dividing cells; mean n = 3
[4] = […]
N2a-cl3 cells = assay: cells; details: Mus musculus, N2a-cl3, read-out: Dividing Calcein EC50 (μM) Mean (n = 3)
[5] = Hepatic microsomal stability, rat
PrP^C in T98G cells = format: cell-based, human; details: read-out: EC50 (μM) ELISA potency, PrP^C in T98G cells
PrP^C in N2a-c13 cells = format: cell-based, mouse; details: read-out: EC50 (μM) ELISA in N2a-cl3 cells (value in parentheses)
ScN2a-c13 cells = assay: cells; format: cell-based; details: Mus musculus; N=3; read-out: EC50 by calcein for cell viability
[6] = system: PrP^Sc in dividing ScN2a-c13 cells; details: read-out: EC50 (ELISA), reduction of PrP^Sc load; dividing ScN2a-c13 cells
physchem [7] = assay: physchem
in vitro = details: dog, MDCK-MDR1
P-gp (MDR1) = assay: in vitro; details: dog, MDCK-MDR1
[8] = Toleration studies in mice
[9] = Hepatic microsomal stability, mouse; details: for half-life at 1 μM: CD-1, mouse, pH 7.4
[10] = Hepatic microsomal stability, human; details: for half-life at 1 μM: human, pH 7.4
[11] = Single-dose pharmacokinetics in FVB mice (oral gavage, IV)
[12] = Multidose (three-day) pharmacokinetics in liquid diet in FVB mice; details: FVB, mouse, in vivo, three-day dosing in liquid diet
MDCK-MDR1 cells = assay: Permeability in MDCK-MDR1 cells; details: MDR1-MDCK cell monolayers; for Permeability PA→B: apical to basal; for Permeability PB→A: basal to apical
[13] = not given; remark: listed apart in the source
[14] = not given; remark: listed apart in the source
physchem [15] = assay: physchem; remark: listed apart in the source
[16] = read-out: Dividing ELISA EC50 (μM) 1st Expt., ScN2a-cl3 dividing cells, 1st determination
[17] = ScN2a-cl3 dividing cells, 1st determination
[18] = ScN2a-cl3 dividing cells, 2nd determination
[19] = ScN2a-cl3 dividing cells, 3rd determination
[20] = ScN2a-cl3 dividing cells, mean of three determinations
[21] = read-out: Antiprion activity ScN2a-cl3 EC50, ScN2a-cl3 cells
[22] = read-out: Dividing ELISA EC50 (μM) 2nd Expt., ScN2a-cl3 dividing cells, 2nd determination
[23] = read-out: Dividing ELISA EC50 (μM) 3rd Expt., ScN2a-cl3 dividing cells, 3rd determination
[24] = read-out: Dividing ELISA EC50 (μM) Mean, ScN2a-cl3 dividing cells, mean of three determinations

COc1ccc(-c2csc(Nc3cc4ccccc4cn3)n2)cc1OC [compound 17, [4-(3,4-dimethoxyphenyl)-thiazol-2-yl]isoquinolin-3-yl-amine]
P-gp substrate status, absorptive vs secretory permeability [1]: greater permeability in the absorptive direction
EC50 [2, 16]: 0.101 µM
EC50 [3]: > 32 µM
metabolic stability (in words) [4]: excellent stability
EC50 (N2a-cl3 cells): > 32 µM
Microsome stability T1/2 ([5]; […]): 1.38 h

CCOC(=O)c1[nH]c2c(c1C)C(=O)CC(c1ccco1)C2 (centres unmarked) [IND87564]
EC50 (PrP^C in T98G cells): 0.25 µM
EC50 (PrP^C in N2a-c13 cells): 1.12 µM

Cc1cccc(Nc2nc(-c3cc4ccccc4o3)cs2)n1 [IND22, (4-Benzofuran-2-yl-thiazol-2-yl)-(6-methyl-pyridin-2-yl)-amine]
EC50 (ScN2a-c13 cells): > 10 µM
EC50 ([2]; AMT analogs tested for potency): 1.46 µM
EC50 ([2]; Table 29, 2-AMT analogs tested for potency, usually n = 3 or more): 1.46 µM
EC50 [6]: 1.46 µM
solubility in FaSSIF (in words) (fasted-state simulated intestinal fluid): higher solubility
solubility at pH 2.0 (in words) (pH 2 (HCl) buffer): higher solubility
solubility (physchem [7]; FaSSIF): 59 µM (≈ 18.1 µg/mL)
solubility (physchem [7]; cell culture media, plasma or biological fluid): 20 µM (≈ 6.15 µg/mL)
solubility (physchem [7]; pH 2 (HCl) buffer, pH 2, simulated gastric fluid): 12 µM (≈ 3.69 µg/mL)
solubility (physchem [7]; pH 7.4 (phosphate) buffer, pH 7.4, aqueous buffer): < 1 µM
Papp A→B (in vitro): 9.5 ×10⁻⁶ cm/s
Papp B→A (in vitro): 8.4 ×10⁻⁶ cm/s
efflux ratio (P-gp (MDR1)): 0.9
Toleration ([8]; 210 mg/kg/day for 14 days, mice): well tolerated
Earliest deaths in treated mice ([8]; long-term dosing in mice): 59 days
half-life at 1 μM ([5]; Sprague-Dawley, rat, […], pH 7.4): > 1 h
% remaining after a 60-min incubation, Rat ([5]; […], 60-min incubation): 64%
Hepatic Extraction Ratio Rat ([5]; rat microsomes): 0.4
half-life at 1 μM ([9]; liver microsomes): 0.817 h
half-life at 1 μM ([9]; mouse liver microsomes): 0.817 h
Hepatic Extraction Ratio Mouse ([9]; mouse): 0.7
% remaining after a 60-min incubation, Mouse ([9]; mouse liver microsomes, 60-min incubation): 40%
Hepatic Extraction Ratio Mouse ([9]; mouse microsomes): 0.7
% remaining after a 60-min incubation, Human ([10]; human liver microsomes, 60-min incubation): 99%
half-life at 1 μM ([10]; human liver microsomes): > 1 h
half-life at 1 μM ([10]; liver microsomes): > 1 h
Kp ([11]; female, FVB, mouse, brain and plasma, po, 10 mg/kg): 0.5
bioavailability ([11]; female, FVB, mouse, plasma, po, 10 mg/kg): 46%
Brain exposure (AUClast) ranking ([11]; single oral dose, FVB mice, brain): highest AUC values in brain
concentration at 3 days ([12]; 40 mg/kg, Brain Concentration (Css), brain): 1310 ± 390 nM
concentration at 3 days ([12]; 40 mg/kg, Plasma Concentration (Css), plasma): 1490 ± 150 nM
concentration at 3 days ([12]; 80 mg/kg, Brain Concentration (Css), brain): 2700 ± 520 nM
concentration at 3 days ([12]; 80 mg/kg, Plasma Concentration (Css), plasma): 2140 ± 580 nM
concentration at 3 days ([12]; 130 mg/kg, Brain Concentration (Css), brain): 3740 ± 410 nM
concentration at 3 days ([12]; 130 mg/kg, Plasma Concentration (Css), plasma): 2500 ± 670 nM
concentration at 3 days ([12]; 210 mg/kg, Brain Concentration (Css), brain): 3230 ± 2620 nM
concentration at 3 days ([12]; 210 mg/kg, Plasma Concentration (Css), plasma): 1980 ± 1240 nM

COc1cc(OC)cc(C(=O)Nc2ccc(I)cn2)c1 [IND85671]
EC50 (PrP^C in T98G cells): 1.1 µM
EC50 (PrP^C in N2a-c13 cells): 0.863 µM

COc1ccc(-c2csc(Nc3ccc(C(F)(F)F)cn3)n2)cc1OC [compound 12, [4-(3,4-dimethoxyphenyl)-thiazol-2-yl]-(5-trifluoromethylpyridin-2-yl)-amine]
P-gp substrate status, absorptive vs secretory permeability [1]: greater permeability in the absorptive direction
Dividing ELISA pEC50 (μM) 1st Expt. [2, 17]: 5.53
Dividing ELISA pEC50 (μM) 2nd Expt. [2, 18]: 5.69
Dividing ELISA pEC50 (μM) 3rd Expt. [2, 19]: 5.58
Dividing ELISA pEC50 (μM) Mean [2, 20]: 5.60
EC50 [2, 21]: 2.53 µM
EC50 [2, 16]: 2.93 µM
EC50 [2, 22]: 2.05 µM
EC50 [2, 23]: 2.62 µM
EC50 [2, 24]: 2.53 µM
EC50 [3]: > 32 µM
metabolic stability (in words) [4]: excellent stability
EC50 (N2a-cl3 cells): > 32 µM
Permeability PA→B (MDCK-MDR1 cells): 9.4 10^−6 cm/sec
Permeability PB→A (MDCK-MDR1 cells): 8.7 10^−6 cm/sec
Microsome stability T1/2 ([5]; […]): 2.5 h

COc1ccnc(Nc2nc(-c3cc(-c4ccccc4)no3)cs2)c1 [IND112, (4-Methoxy-pyridin-2-yl)-[4-(3-phenyl-isoxazol-5-yl)-thiazol-2-yl]-amine]
EC50 (ScN2a-c13 cells): > 10 µM
EC50 ([2]; AMT analogs tested for potency): 0.251 µM
EC50 [6]: 0.251 µM

Cc1ccc(Nc2nc(-c3c(-c4ccccc4)noc3C)cs2)nc1 [compound 28, [4-(5-Methyl-3-phenylisoxazol-4-yl)-thiazol-2-yl]-(5-methylpyridin-2-yl)-amine]
P-gp substrate status, absorptive vs secretory permeability [1]: greater permeability in the absorptive direction
Dividing ELISA pEC50 (μM) 1st Expt. [2, 17]: 4.52
Dividing ELISA pEC50 (μM) 2nd Expt. [2, 18]: 4.82
Dividing ELISA pEC50 (μM) 3rd Expt. [2, 19]: >4.5
EC50 [2, 21]: > 26 µM
EC50 [2, 16]: 30 µM
EC50 [2, 22]: 15.2 µM
EC50 [2, 23]: > 32 µM
EC50 [2, 24]: > 26 µM
EC50 [3]: > 32 µM
melting point [13]: 267 to 269 °C
EC50 (N2a-cl3 cells): > 32 µM
Permeability PA→B (MDCK-MDR1 cells): 11.2 10^−6 cm/sec
Permeability PB→A (MDCK-MDR1 cells): 8.6 10^−6 cm/sec
Microsome stability T1/2 ([5]; […]): 0.317 h

COc1ccc(Nc2nc(-c3cc(-c4ccccc4)no3)cs2)nc1 [IND120, (5-Methoxy-pyridin-2-yl)-[4-(3-phenyl-isoxazol-5-yl)-thiazol-2-yl]-amine]
EC50 (ScN2a-c13 cells): > 10 µM
EC50 ([2]; AMT analogs tested for potency): 0.229 µM
EC50 [6]: 0.229 µM

Cc1cccc(Nc2nc(-c3ccc(-c4ccnc(OCC#N)c4)cc3)cs2)n1 [IND-0116138]
Analiza solubility (μM) pH 1.2 ([14]; pH 1.2): >150 μM
Analiza solubility (μM) pH 7.4 ([14]; pH 7.4): <0.4 μM
solubility (physchem [15]; pH 1.2, simulated gastric fluid): > 150 µM
solubility (physchem [15]; pH 7.4, aqueous buffer): < 0.4 µM

COc1ccc(-c2csc(Nc3ccc4ccccc4n3)n2)cc1OC [compound 18, [4-(3,4-dimethoxyphenyl)-thiazol-2-yl]-quinolin-2-yl-amine]
P-gp substrate status, absorptive vs secretory permeability [1]: greater permeability in the absorptive direction
Dividing ELISA pEC50 (μM) 1st Expt. [2, 17]: 6.31
Dividing ELISA pEC50 (μM) 2nd Expt. [2, 18]: 6.47
Dividing ELISA pEC50 (μM) 3rd Expt. [2, 19]: 6.34
Dividing ELISA pEC50 (μM) Mean [2, 20]: 6.38
EC50 [2, 21]: 0.43 µM
EC50 [2, 16]: 0.486 µM
EC50 [2, 22]: 0.34 µM
EC50 [2, 23]: 0.453 µM
EC50 [2, 24]: 0.426 µM
EC50 [3]: > 32 µM
metabolic stability (in words) [4]: excellent stability
EC50 (N2a-cl3 cells): > 32 µM
Permeability PA→B (MDCK-MDR1 cells): 9.2 10^−6 cm/sec
Permeability PB→A (MDCK-MDR1 cells): 8.9 10^−6 cm/sec
Microsome stability T1/2 ([5]; […]): 1.15 h
